The results in this text go back to US20260001914A1, “MACROCYCLIC PEPTIDES TARGETING KRAS” (Merck Sharp & Dohme LLC, priority 2022, published 2026).

Molecules are shown by their SMILES. *1 amine or outer side, *2 acyl side, *3 side chain or, on linkers, in order; H or OH if unused. Where a SMILES comes first, the peptide text is derived from it. [ ]: non-standard residue; d: D form. Ala(pyrimidin-5-yl) = N[C@@H](Cc1cncnc1)C(=O)O; X24 = O=C([C@H](Cc1ccncc1Cl)N[*:1])[*:2]; X26 = Cn1cc(C[C@H](N[*:1])C(=O)[*:2])cn1; X11 = CC(C)(F)CC[C@H](N[*:1])C(=O)[*:2]; NMeAha = CN[C@@H](CCN=[N+]=[N-])C(=O)O; X40 = CC(C)(F)C[C@H](N[*:1])C(=O)[*:2]; Phe(2-F) = N[C@@H](Cc1ccccc1F)C(=O)O; NMe3Pal = CN[C@@H](Cc1cccnc1)C(=O)O; X1 = O=C(C12CC(CN[*:1])(C1)C2)[*:2]; Ala(cPr) = N[C@@H](CC1CC1)C(=O)O; NMeF = CN[C@@H](Cc1ccccc1)C(=O)O; PhLac = O=C(O)[C@@H](O)Cc1ccccc1; X4 = O=C([C@H](CCCF)N[*:1])[*:2]; 3Pal = N[C@@H](Cc1cccnc1)C(=O)O; Ahp(2) = CCCCC[C@H](N)C(=O)O; Cba = N[C@@H](CC1CCC1)C(=O)O; hLeu = CC(C)CC[C@H](N)C(=O)O; NMeA = CN[C@@H](C)C(=O)O; Nle = CCCC[C@H](N)C(=O)O Bounds are passed on as bounds.

This assay deals with phosphorylation levels of ERK1/2 in AsPC-1 (homozygous KRAS-G12D) cells (Homo sapiens, UniProt P01116, G12D). In words: Cellular phospho-ERK assay in AsPC-1 cells (Alpha Screen), assay medium without fetal bovine serum.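 Note: signal taken as phospho-ERK over total ERK per well, both detected in one multiplex bead assay, EC50 from four-parameter logistic fit of dose-response curves.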 Type of assay: cell-based. To be noted: phospho-ERK AlphaScreen, 18 h.
phosphorylation levels of ERK1/2 in AsPC-1 (homozygous KRAS-G12D) cells, sequence (P01116 1-186 G12D): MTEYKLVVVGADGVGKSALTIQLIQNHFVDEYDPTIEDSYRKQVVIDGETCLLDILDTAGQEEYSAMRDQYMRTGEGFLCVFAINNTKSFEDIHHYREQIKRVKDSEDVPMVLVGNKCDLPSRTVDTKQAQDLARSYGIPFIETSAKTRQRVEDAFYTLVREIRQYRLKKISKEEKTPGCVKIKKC
As a reminder, the EC50 is the concentration needed to bring the measured effect to its halfway point. Lower therefore signals higher potency in that assay. In turn, `CCCC[C@@H]1NC(=O)[C@H](Cc2cncnc2)NC(=O)[C@H](CCN=[N+]=[N-])N(C)C(=O)[C@H](Cc2ccccc2)OC(=O)C23CC(CNC(=O)[C@H](Cc4cccnc4)N(C)C(=O)[C@H](CCCC)NC(=O)[C@H](Cc4ccccc4F)NC1=O)(C2)C3` [compound 242, cyclo(FLac-NMeDabN3-PyrimAla-Nle-Phe2F-Nle-NMe3Pal-amBCP)] (cyclo([NMe3Pal][X1][PhLac][NMeAha][Ala(pyrimidin-5-yl)][Nle][Phe(2-F)][Nle])) displayed an EC50 of 11.6 µM. `CCCCC[C@@H]1NC(=O)[C@H](Cc2ccc(OC)cc2)NC(=O)[C@H](CC2CCC2)NC(=O)[C@H](Cc2cccnc2)NC(=O)[C@H](C)N(C)C(=O)[C@H](Cc2ccccc2)OC(=O)C23CC(CNC(=O)[C@H](Cc4ccccc4)N(C)C1=O)(C2)C3` [compound 227, cyclo(FLac-NMeA-3Pal-cBuA-TyrOMe-Ahp-NMeF-amBCP)] (cyclo([3Pal][Cba]Y(Me)[Ahp(2)][NMeF][X1][PhLac][NMeA])) had an EC50 of 0.886 µM. Under `CCCC[C@@H]1NC(=O)[C@H](Cc2cnn(C)c2)NC(=O)[C@H](C)N(C)C(=O)[C@H](Cc2ccccc2)OC(=O)C23CC(CNC(=O)[C@H](Cc4cccnc4)N(C)C(=O)[C@H](CCCC)NC(=O)[C@H](Cc4ccccc4F)NC1=O)(C2)C3` [compound 400, cyclo(FLac-NMeA-Ala4PyzlMe-Nle-Phe2F-Nle-NMe3Pal-amBCP)] (cyclo([NMe3Pal][X1][PhLac][NMeA][X26][Nle][Phe(2-F)][Nle])) stands 31.4 µM; under `CCCCC[C@@H]1NC(=O)[C@H](Cc2ccc(OC)cc2)NC(=O)[C@H](CC2CCC2)NC(=O)[C@H](Cc2ccoc2)NC(=O)[C@H](CCCNC(=N)N)NC(=O)[C@H](Cc2ccccc2)NC(=O)CSC[C@@](C)(C(N)=O)NC(=O)[C@H](Cc2ccccc2)N(C)C1=O` [compound 371, cyclo(F-R-Ala3Fur-cBuA-TyrOMe-Ahp-NMeF-aMeCl-ClAc)], above 50.8 µM; under `C[C@H]1C(=O)N[C@@H](Cc2cncnc2)C(=O)N[C@@H](CC2CC2)C(=O)N[C@@H](Cc2ccncc2Cl)C(=O)N[C@@H](CCC(C)(C)F)C(=O)N(C)[C@@H](Cc2ccccc2)C(=O)NCC23CC(C2)(C3)C(=O)O[C@@H](Cc2ccccc2)C(=O)N1C` [compound 299, cyclo(FLac-NMeA-PyrimAla-cPrA-4Pal2Cl-hL3F-NMeF-amBCP)] (cyclo([Ala(cPr)][X24][X11][NMeF][X1][PhLac][NMeA][Ala(pyrimidin-5-yl)])), above 50.8 µM. `CCCC[C@@H]1NC(=O)[C@H](Cc2ccccc2F)NC(=O)[C@H](CCCF)NC(=O)[C@H](Cc2cccnc2)NC(=O)[C@H](C)N(C)C(=O)[C@H](Cc2ccccc2)OC(=O)C23CC(CNC(=O)[C@H](Cc4cccnc4)N(C)C1=O)(C2)C3` [compound 120, cyclo(FLac-NMeA-3Pal-NvaF-Phe2F-Nle-NMe3Pal-amBCP)] (cyclo([3Pal][X4][Phe(2-F)][Nle][NMe3Pal][X1][PhLac][NMeA])) yielded an EC50 above 50.8 µM. Under `CCCC[C@@H]1NC(=O)[C@H](Cc2ccccc2)NC(=O)[C@H](C)N(C)C(=O)[C@H](Cc2ccccc2)OC(=O)C23CC(CNC(=O)[C@H](Cc4ccccc4)N(C)C(=O)[C@H](CCCC)NC(=O)[C@H](Cc4ccccc4F)NC1=O)(C2)C3` [compound 305, cyclo(FLac-NMeA-F-Nle-Phe2F-Nle-NMeF-amBCP)] (cyclo(F[Nle][Phe(2-F)][Nle][NMeF][X1][PhLac][NMeA])) stands above 50.8 µM; under `CC(C)CC[C@@H]1NC(=O)[C@H](Cc2ccccc2F)NC(=O)[C@H](CC(C)(C)F)NC(=O)[C@H](Cc2cncnc2)NC(=O)[C@H](C)N(C)C(=O)[C@H](Cc2ccccc2)OC(=O)C23CC(CNC(=O)[C@H](Cc4ccccc4)N(C)C1=O)(C2)C3` [compound 136, cyclo(FLac-NMeA-PyrimAla-Leu3F-Phe2F-hL-NMeF-amBCP)] (cyclo([NMeA][Ala(pyrimidin-5-yl)][X40][Phe(2-F)][hLeu][NMeF][X1][PhLac])), 7.73 µM.
